Measured values taken from patent publication US20160039825A1 (BIOGEN MA INC., priority 2013, published 2016).

Molecular target: T1, Human ATX protein (Homo sapiens, UniProt Q13822)
T1 construct: made in house
Test: Autotaxin (ATX) assay, FRET with FS-3 substrate
Format: biochemical
Details: upper bound bins (no greater than 100, 250 or 500 nM); FS-3 2 μM, ATX 1.0 μg/mL
Procedure, shortened: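 Hydrolysis of the FRET substrate FS-3 (2 μM final) unquenches fluorescein, read at excitation 485 nm and emission 538 nm after 2 h at room temperature, protected from light. Purified human ATX (1.0 μg/mL) and compound were first incubated for 30 min in pH 7.4 Tris/salt buffer containing 1 mg/mL fatty acid-free BSA.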

Q: `O=C(OCc1cc(C(F)(F)F)cc(C(F)(F)F)c1)N1CCCn2nc(C(=O)N3CCNCC34CC4)cc2C1` [Example 219] was tested. Which IC50 did it give?
A: ≤ 100 nM

Q: With `O=C(O)Cc1cc2n(n1)CCCN(C(=O)OCc1cc(C(F)(F)F)cc(C(F)(F)F)c1)C2` [Example 386, 2-(5-(((3,5-bis(Trifluoromethyl)benzyl)oxy)carbonyl)-5,6,7,8-tetrahydro-4H-pyrazolo[1,5-a][1,4]diazepin-2-yl)acetic acid] as the compound, how does the IC50 read?
A: ≤ 100 nM

Q: `CC(c1cc2n(n1)CCCN(C(=O)OCc1cc(C(F)(F)F)cc(C(F)(F)F)c1)C2)N1CCC(C(=O)O)CC1` (stereo not drawn) [Example 149, 1-(1-(5-(((3,5-Bis(trifluoromethyl)benzyl)oxy)carbonyl)-5,6,7,8-tetrahydro-4H-pyrazolo[1,5-a][1,4]diazepin-2-yl)ethyl)piperidine-4-carboxylic acid] was tested. Which IC50 did it give?
A: ≤ 500 nM

Q: Which IC50 does the source give for `O=C(OCc1cc(C(F)(F)F)cc(C(F)(F)F)c1)N1CCCn2cncc2C1` [Example 132, 3,5-Bis(trifluoromethyl)benzyl 6,7-dihydro-5H-imidazo[1,5-a][1,4]diazepine-8(9H)-carboxylate] here?
A: ≤ 100 nM

Q: `CNCc1cc2n(n1)CCCN(C(=O)OCc1cc(C(F)(F)F)cc(C(F)(F)F)c1)C2` [Example 294] was tested. Which IC50 did it give?
A: ≤ 500 nM

Q: How did the IC50 turn out when `O=C(OCc1cc(C(F)(F)F)cc(C(F)(F)F)c1)N1CCCn2nc(N3CCN4CCC[C@H]4C3)cc2C1` [Example 346] was run?
A: ≤ 100 nM

Q: How did the IC50 turn out when `CC1OCCN(CC(=O)c2cc3n(n2)CCCN(C(=O)OCc2cc(Cl)cc(C(F)(F)F)c2)C3)C1C` (stereo not drawn) [Example 266] was run?
A: ≤ 100 nM

Q: With `CC(C)(C)OC(=O)N1CCN(C(=O)c2cc3n(n2)CCN(C(=O)OCc2cc(Cl)cc(C(F)(F)F)c2)C3)CC1` [Example 471] as the compound, how does the IC50 read?
A: ≤ 100 nM

Q: `CC1CNCCN1C(=O)c1cc2n(n1)CCCN(C(=O)OCc1cc(Cl)cc(C(F)(F)F)c1)C2` (stereo not drawn) [Example 213] was tested. Which IC50 did it give?
A: ≤ 100 nM

Q: For `O=C(OCc1cc(C(F)(F)F)cc(C(F)(F)F)c1)N1CCCn2nc(C(=O)N3CCNCC34CCC4)cc2C1` [Example 235], which IC50 is on record?
A: ≤ 100 nM

Q: For `O=C(O)c1cc2n(c1)CCCN(C(=O)OCc1cc(Cl)cc(Cl)c1)C2` [Example 100, 2-(((3,5-Dichlorobenzyl)oxy)carbonyl)-2,3,4,5-tetrahydro-1H-pyrrolo[1,2-a][1,4]diazepine-8-carboxylic acid], which IC50 is on record?
A: ≤ 100 nM

Q: Which IC50 does the source give for `O=C(OCc1cc(C(F)(F)F)cc(C(F)(F)F)c1)N1CCCn2nc(CN[C@H]3CC[C@@H](C(=O)O)CC3)cc2C1` [Example 288] here?
A: ≤ 500 nM

Q: Which IC50 does the source give for `O=C(OCc1cc(C(F)(F)F)cc(C(F)(F)F)c1)N1CCn2nc(-c3cn[nH]c3)cc2C1` [Example 500] here?
A: ≤ 100 nM

Q: Which IC50 does the source give for `CC1CN(C(=O)OCc2cc(C(F)(F)F)cc(C(F)(F)F)c2)Cc2cc(C(=O)O)nn2C1` (stereo not drawn) [Example 111, 5-(((3,5-Bis(trifluoromethyl)benzyl)oxy)carbonyl)-7-methyl-5,6,7,8-tetrahydro-4H-pyrazolo[1,5-a][1,4]diazepine-2-carboxylic acid] here?
A: ≤ 100 nM

Q: Which IC50 does the source give for `CC1CN(C(=O)OC(C)(C)C)CCN1C(=O)c1cc2n(n1)CCN(C(=O)OCc1cc(C(F)(F)F)cc(C(F)(F)F)c1)C2` (stereo not drawn) [Example 464] here?
A: ≤ 100 nM

Q: How did the IC50 turn out when `Cc1noc(-c2cc3n(n2)CCCN(C(=O)OCc2cc(C(F)(F)F)cc(C(F)(F)F)c2)C3)n1` [Example 118, 3,5-Bis(trifluoromethyl)benzyl 2-(3-methyl-1,2,4-oxadiazol-5-yl)-7,8-dihydro-4H-pyrazolo[1,5-a][1,4]diazepine-5(6H)-carboxylate] was run?
A: ≤ 100 nM

Q: For `O=C(OCc1cc(C(F)(F)F)cc(C(F)(F)F)c1)N1CCCn2nc(CNC3CC3)cc2C1` [Example 513], which IC50 is on record?
A: ≤ 250 nM

Q: For `O=C(N[C@H]1CC[C@@H](C(=O)O)CC1)c1cc2n(n1)CCCN(C(=O)OCc1cc(Cl)cc(Cl)c1)C2` [Example 85, (cis)-4-(5-(((3,5-Dichlorobenzyl)oxy)carbonyl)-5,6,7,8-tetrahydro-4H-pyrazolo[1,5-a][1,4]diazepine-2-carboxamido)cyclohexanecarboxylic acid], which IC50 is on record?
A: ≤ 100 nM

Q: `O=C(O)C1CC2CCCC(C1)N2C(=O)c1cc2n(n1)CCN(C(=O)CCc1cc(Cl)cc(Cl)c1)C2` (stereo not drawn) [Example 92, 9-(5-(3-(3,5-Dichlorophenyl)propanoyl)-4,5,6,7-tetrahydropyrazolo[1,5-a]pyrazine-2-carbonyl)-9-azabicyclo[3.3.1]nonane-3-carboxylic acid] was tested. Which IC50 did it give?
A: ≤ 100 nM

Q: `O=C(OCc1cc(C(F)(F)F)cc(C(F)(F)F)c1)N1CCCn2nc(C(=O)N3CCOCC3)cc2C1` [Example 30, 3,5-Bis(trifluoromethyl)benzyl 2-(morpholine-4-carbonyl)-7,8-dihydro-4H-pyrazolo[1,5-a][1,4]diazepine-5(6H)-carboxylate] was tested. Which IC50 did it give?
A: ≤ 100 nM

Q: `C[C@@H]1CNC[C@H](C)N1C(=O)c1cc2n(n1)CCCN(C(=O)OCc1cc(Cl)cc(C(F)(F)F)c1)C2` [Example 164] was tested. Which IC50 did it give?
A: ≤ 100 nM

Q: With `O=C(CCc1cc(Cl)cc(Cl)c1)N1CCn2nc(C(=O)N3C4CCCC3CCC4)cc2C1` [Example 94, 1-(2-(9-Azabicyclo[3.3.1]nonane-9-carbonyl)-6,7-dihydropyrazolo[1,5-a]pyrazin-5(4H)-yl)-3-(3,5-dichlorophenyl)propan-1-one] as the compound, how does the IC50 read?
A: ≤ 100 nM

Q: For `CC(NC1=NCCN1)c1cc2n(n1)CCCN(C(=O)OCc1cc(Cl)cc(C(F)(F)F)c1)C2` (stereo not drawn) [Example 157, 3-chloro-5-(trifluoromethyl)benzyl 2-(1-((4,5-dihydro-1H-imidazol-2-yl)amino)ethyl)-7,8-dihydro-4H-pyrazolo[1,5-a][1,4]diazepine-5(6H)-carboxylate], which IC50 is on record?
A: ≤ 250 nM

Q: How did the IC50 turn out when `O=C(OCc1cc(C(F)(F)F)cc(C(F)(F)F)c1)N1CCCn2nc(C(=O)N3CCC(O)CC3)cc2C1` [Example 31, 3,5-Bis(trifluoromethyl)benzyl 2-(4-hydroxypiperidine-1-carbonyl)-7,8-dihydro-4H-pyrazolo[1,5-a][1,4]diazepine-5(6H)-carboxylate] was run?
A: ≤ 100 nM

Q: With `CC1CN(C(=O)c2cc3n(n2)CCN(C(=O)OCc2cc(C(F)(F)F)cc(C(F)(F)F)c2)C3)CCN1` (stereo not drawn) [Example 439] as the compound, how does the IC50 read?
A: ≤ 100 nM

Q: With `CC(C)(C)OC(=O)N1CC2CCC(C1)N2C(=O)c1cc2n(n1)CCN(C(=O)OCc1cc(C(F)(F)F)cc(C(F)(F)F)c1)C2` [Example 474] as the compound, how does the IC50 read?
A: ≤ 100 nM

Q: How did the IC50 turn out when `N#Cc1cc2n(n1)CCCN(C(=O)OCc1cc(Cl)cc(Cl)c1)C2` [Example 122, 3,5-Dichlorobenzyl 2-cyano-7,8-dihydro-4H-pyrazolo[1,5-a][1,4]diazepine-5(6H)-carboxylate] was run?
A: ≤ 250 nM

Q: With `CC(c1cc2n(n1)CCCN(C(=O)OCc1cc(Cl)cc(Cl)c1)C2)N1CCCCC1` (stereo not drawn) [Example 446] as the compound, how does the IC50 read?
A: ≤ 250 nM

Q: With `CCC1CN(C(=O)c2cc3n(n2)CCCN(C(=O)OCc2cc(Cl)cc(C(F)(F)F)c2)C3)CCN1` (stereo not drawn) [Example 206] as the compound, how does the IC50 read?
A: ≤ 100 nM

Q: `CNC1CCN(C(=O)c2cc3n(n2)CCCN(C(=O)OCc2cc(C(F)(F)F)cc(C(F)(F)F)c2)C3)C1` (stereo not drawn) [Example 243] was tested. Which IC50 did it give?
A: ≤ 100 nM

Q: With `O=C(OCc1cc(C(F)(F)F)cc(C(F)(F)F)c1)N1CCn2nc(C(=O)N3CCC3)cc2C1` [Example 485] as the compound, how does the IC50 read?
A: ≤ 100 nM

Q: With `O=C(O)c1cc2n(n1)CC(O)CN(C(=O)OCc1cc(C(F)(F)F)cc(C(F)(F)F)c1)C2` (stereo not drawn) [Example 421] as the compound, how does the IC50 read?
A: ≤ 500 nM

Q: For `CCN1CCN(C(=O)c2cc3n(n2)CCCN(C(=O)OCc2cc(C(F)(F)F)cc(C(F)(F)F)c2)C3)C(C)(C)C1` [Example 244], which IC50 is on record?
A: ≤ 100 nM

Q: For `O=C(OCc1cc(C(F)(F)F)cc(C(F)(F)F)c1)N1CCCn2nc(C(=O)N3CC4CCC3CN4)cc2C1` (stereo not drawn) [Example 224], which IC50 is on record?
A: ≤ 100 nM

Q: How did the IC50 turn out when `O=C(OCc1cc(C(F)(F)F)cc(C(F)(F)F)c1)N1CCn2c(nnc2C(F)(F)F)C1` [Example 134, 3,5-Bis(trifluoromethyl)benzyl 3-(trifluoromethyl)-5,6-dihydro-[1,2,4]triazolo[4,3-a]pyrazine-7(8H)-carboxylate] was run?
A: ≤ 500 nM

Q: With `O=C(OCc1cc(Cl)cc(C(F)(F)F)c1)N1CCCn2nc(C3CN4CCC[C@@H]4CO3)cc2C1` (single isomer, unassigned) [Example 252A] as the compound, how does the IC50 read?
A: ≤ 100 nM
